# Assay results reported in patent publication US6649797B2, “Compounds and methods of use to treat infectious diseases” (The Picower Institute for Medical Research, priority 1996, dated 2003).
# Columns and labels:
# [1] = tested on: macrophage-tropic strain of HIV-1; assay: Inhibition of HIV-1 replication in peripheral blood-derived macrophages (IC50, RT or p24 in medium); format: cell-based; conditions: Human immunodeficiency virus 1, Macrophage, 120 h; 50% inhibition of viral growth; RT or p24 in medium about day 5 or 6 post-infection
# Method: A quantitative measurement of the activity of the compounds of the invention to block the replication of HIV-1 in non-dividing cells can be determined by culture of a macrophage-tropic strain of HIV-1 on peripheral blood-derived macrophages. The cells are cultured for 5-6 days prior to infection in a medium consisting of DMEM supplemented with 10% type A/B human serum and 200 U/ml Macrophage Colony Stimulating Factor, with half the medium changed after 3 days, to reach a density of about 10^6 cells per 5 ml well. A macrophage-tropic viral stock may be grown on these cells. The concentration of infectious particles in the stock is estimated by measurement of p24 antigen concentration.
# To test the effect of compounds of the invention on HIV-1 infection in the above-described culture system, the medium is removed and replaced with medium containing HIV-1 at a concentration of 1 ng of p24 (10^4 TCID50/ml (TCID=tissue culture infectious doses)) and a known concentration of the compound of the invention (the inhibitor). After 24 hours, the cultures are washed to remove non-adherent virus and the culture is re-fed with medium containing the inhibitor at the desired concentration. The amount of replication of HIV-1 is estimated by an assay of the reverse transcriptase activity or by an assay of the concentration of p24 antigen in the culture medium every 2-3 days throughout the post-infection period. In a preferred embodiment the anti-HIV potency of the candidate drug is measured by comparison of the concentration of reverse transcriptase (RT) or of p24 antigen in the medium of the treated and control cultures at the time of the peak of these values in non-treated control cultures, that is about day 5 or 6 post-infection. Repetition at various levels of inhibitor allows for the calculation of the concentration of inhibitor that achieves 50% inhibition of viral growth, IC50. Table I discloses the IC50 of various inhibitors.
# HIV-1ADA [2] = assay: Nuclear importation of HIV-1 DNA in monocytes (2-LTR circle PCR, Translocation Index); format: cell-based; conditions: 100 nM, 48 and 96 hours post infection
# Text: The effects of Compound No. 2 on the nuclear importation of HIV-1 preintegration complexes can be directly measured by detecting the presence of circularized duplex HIV-1 genomic DNA. These duplex circles can be readily detected by PCR amplification using primers which span the junction of the circularized HIV-1 genome. Bukrinsky, M. I., et al., 1992, Proc.Natl.Acad.Sci. 89:6580-84.
# Briefly, the efficiency of nuclear translocation was estimated by the ratio between the 2-LTR- and pol-specific PCR products, which reflects the portion of 2-LTR circle DNA molecules as a fraction of the entire pool of intracellular HIV-1 DNA. Viral 2-LTR circle DNA is formed exclusively within the nucleus of infected cells and thus is a convenient marker of successful nuclear translocation. […]
# PCR analysis of HIV-1 DNA: Total DNA was extracted from HIV-1-infected cells using the IsoQuick extraction kit (Microprobe Corp., Garden Grove, Calif.). DNA was then analyzed by PCR using primer pairs that amplify the following sequences: a fragment of HIV-1 (LTR/gag) that is the last one to be synthesized during reverse transcription and therefore represents the pool of full-length viral DNA molecules; a fragment of polymerase gene (pol); a 2-LTR junction region found only in HIV-1 2-LTR circle DNA molecules; or a fragment of the cellular a-tubulin gene. […]
# HIV-1ADA [3] = assay: Anti-HIV activity in primary human monocytes, day 9 (Table IX, FIG. 12C); format: cell-based; conditions: Human immunodeficiency virus 1, Monocyte, 216 h
# [4] = tested on: nucleoplasmin-coated gold particles; assay: Nuclear import of nucleoplasmin-coated gold particles
# [5] = target: T1, karyopherin α / purified recombinant MA (Human immunodeficiency virus type 1 group M subtype B, UniProt P04591); assay: Binding of karyopherin α to purified recombinant MA; format: biochemical, HIV-1
# T1 construct: or to purified recombinant MA
# [6] = target: T2, HIV-1 pre-integration complex (MA / HIV-1 cDNA) (Human immunodeficiency virus type 1 group M subtype B, UniProt P05890+P05959); assay: Association of MA with HIV-1 cDNA (anti-MA immunoprecipitation of viral DNA); format: biochemical; conditions: 10 μM (FIG. 13A)
# T2 construct: MA is made from the Gag precursor and RT is made from the Gag-Pol precursor; endogenous in cells; host or cells: cytoplasmic extract of H9 cells infected with HIV-1RF
# Method: Cytoplasmic extracts prepared from H9 cells infected with HIV-1RF were treated with 10 μM CNI-H0294 (lanes 2, 3, and 4) or left untreated (lane 1). Samples were divided into two aliquots. One aliquot was mixed with GST-karyopherin α immobilized on Sepharose beads and the HIV-1 DNA that bound was quantified by PCR. The second aliquot was immunoprecipitated (IP) with anti-MA serum (αMA, lane 3) or with pre-immune serum (NSS, lane 4) as control.
# To test this hypothesis, cytoplasmic lysates of HIV-1-infected H9 cells were treated with CNI-H0294 and mixed with immobilized karyopherin α or subjected to immunoprecipitation with antibodies that bind MA.
Compound,IC50 [1] [nM],Translocation Index (HIV-1ADA [2]; relative to drug free control),"inhibition at 0.1 µM (HIV-1ADA [2]; Human immunodeficiency virus 1, Monocyte) [%]",IC50 (HIV-1ADA [3]) [nM],block of nuclear import of nucleoplasmin-coated gold particles [4],inhibition of binding of karyopherin α to purified recombinant MA [5],immunoprecipitation of viral DNA with anti-MA serum [6]
"CC(=O)c1cc(Nc2cc(C)[n+](C)c(N)n2)cc(C(C)=O)c1.[I-] [Compound No. 2, 2-amino-4-(3,5-diacetylphenyl)amino-1,6-dimethylpyrimidinium iodide]",1,less than 10,> 90,,,,
"CC(=O)c1cc(Nc2cc(C)[n+](C)c(N)n2)cc(C(C)=O)c1 [CNI-0294, 2-Amino-4-(3,5-diacetylphenyl)amino-1,6-dimethylpyrimidinium chloride]",,,,50,did not block,did not inhibit,did not prevent immunoprecipitation of viral DNA with anti-MA serum
